{
  "source": "patent US6951729B1",
  "about": "“High throughput screening method for biological agents affecting fatty acid biosynthesis” (Affinium Pharmaceuticals, Inc., priority 1999, dated 2005)",
  "key": {"[1]": {"tested_on": "bacterial fatty acid biosynthesis", "settings": "cited from earlier work"}, "FabK": {"tested_on": "FabK", "experiment": "FabK activity assay, activation by monovalent cations", "type": "biochemical, Streptococcus pneumoniae", "settings": "NH4+ at 100 mM", "procedure": "FabK catalyses the reduction of enoyl-ACPs with the concommitant oxidation of NADH. Crotonoyl-ACP can be prepared as described below. The reduction of crotonoyl-ACP to butyryl-ACP can be monitored by following the change in absorbance at 340 nm as NADH is oxidised.\nAssays were carried out in Costar 3696 half-area plates in a fmal assay volume of 150 μl on a Spectramax platereader. Substrates, NADH and crotonoyl ACP, were incubated with FabK enzyme in […] N-[2-acetamido]-2 iminodiacetic acid (ADA), pH 6.5, 100 mM NH4Cl, 4% glycerol at 30° C. and the reaction monitored at 340 nm. This assaying can also be performed using crotonyl CoA, NADPH or an NADH analogue as a substrate."}, "FabH [2]": {"tested_on": "FabH", "settings": "through formation of dead end inhibition complexes with enzyme"}, "FabH [3]": {"biological_target": "FabH (Escherichia coli, UniProt P0A6R0)", "sequence (P0A6R0 whole entry)": "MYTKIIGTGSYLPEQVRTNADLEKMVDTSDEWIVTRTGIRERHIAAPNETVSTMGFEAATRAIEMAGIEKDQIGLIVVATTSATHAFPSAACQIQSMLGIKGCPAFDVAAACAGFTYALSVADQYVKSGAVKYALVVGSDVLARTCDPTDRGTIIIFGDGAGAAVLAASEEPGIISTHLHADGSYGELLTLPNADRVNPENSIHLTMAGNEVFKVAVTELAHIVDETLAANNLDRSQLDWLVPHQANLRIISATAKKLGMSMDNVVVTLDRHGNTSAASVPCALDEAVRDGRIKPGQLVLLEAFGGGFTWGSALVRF", "settings": "Heath et al. 1996; cited from earlier work"}, "FabI": {"biological_target": "FabI (Escherichia coli, UniProt P0AEK4)", "sequence (P0AEK4 whole entry)": "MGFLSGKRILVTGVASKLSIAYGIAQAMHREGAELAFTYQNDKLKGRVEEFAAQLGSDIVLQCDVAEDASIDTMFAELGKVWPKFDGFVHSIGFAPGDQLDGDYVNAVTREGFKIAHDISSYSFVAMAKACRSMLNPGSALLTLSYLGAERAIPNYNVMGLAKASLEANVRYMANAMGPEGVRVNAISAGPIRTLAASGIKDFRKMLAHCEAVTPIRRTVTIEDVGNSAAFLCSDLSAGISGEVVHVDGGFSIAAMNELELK", "settings": "Heath et al. 1996; cited from earlier work"}},
  "data": [
    {"molecule": "C/C=C/C/C=C/CCC(=O)[C@H]1O[C@H]1C(N)=O", "note": "[Cerulenin]", "values": [
      {"measurement": "inhibition of bacterial fatty acid biosynthesis", "setting": "[1]", "result": "potent inhibitors"}
    ]},
    {"molecule": "N", "note": "[NH4^+]", "values": [
      {"measurement": "activation of the FabK reaction over the reaction with no monovalent cations", "setting": "FabK", "result": "about 300 fold"}
    ]},
    {"molecule": "C=C/C(C)=C/[C@@]1(C)SC(=O)C(C)=C1O", "note": "[thiolactomycin]", "values": [
      {"measurement": "inhibition of bacterial fatty acid biosynthesis", "setting": "[1]", "result": "potent inhibitors"}
    ]},
    {"molecule": "Acetyl-ACP", "values": [
      {"measurement": "inhibition of FabH", "setting": "FabH [2]", "result": "inhibitor of FabH"}
    ]},
    {"molecule": "palmitoyl-ACP", "values": [
      {"measurement": "feedback inhibition of FabH", "setting": "FabH [3]", "result": "feedback inhibition"},
      {"measurement": "feedback inhibition of FabI", "setting": "FabI", "result": "feedback inhibition"}
    ]}
  ]
}
